Data published in PubChem BioAssay AID1963970 (Molecular Pharmacology Branch, DTP, NCI, 2024).
pIC50: −log10 of the molar value. Several values for one entry are separate records, joined by “and”; a condition that tells them apart may be missing. Equal entries are not always repeated. One block for each molecule: values may come before it.

Test system: 931267-113-T-J1-PDC multicell spheroid viability
Assay: Anticancer human tumor 931267-113-T-J1-PDC patient-derived colon adenocarcinoma cell line growth inhibition [PI3K]
Conditions: for pIC50: curve of first compound; for viability, T/C: stronger effect = lower value
Description: Combinatorial screen of targeted agents with the PI3K inhibitors inavolisib, alpelisib, duvelisib, and copanlisib in multi-cell type tumor spheroids
A high-throughput screen of multi-cell type tumor spheroids was designed to identify active combinations of targeted small molecules and PI3K pathway inhibitors. Complex spheroids include a stromal component modeled by human endothelial cells (HUVEC) and fibroblasts modeled by human mesenchymal stem cells (MSCs). The concentration ranges selected for each drug and investigational agent were based upon clinically achievable concentrations if the clinical Cmax of the agent was known.
Compounds. The drugs and investigational agents: inavolisib (NSC800729), alpelisib (NSC765974), duvelisib (NSC772469), copanlisib (NSC816437), ipatasertib (NSC767898), afuresertib (NSC778305), talazoparib (NSC767125), sapanisertib (NSC764658), selumetinib (NSC741078), tovorafenib (DAY101, NSC766906), vemurafenib (NSC761431), ravoxertinib (NSC781343), sotorasib (NSC818433), MRTX1133 (NSC 836407), abemaciclib (NSC 768073), palbociclib (NSC758247), venetoclax (NSC 766270), SY5609 (NSC837396), enzalutamide (NSC755605), and darolutamide (NSC825331), were obtained from the National Cancer Institute (NCI) Developmental Therapeutics Program Chemical Repository. The FDA-approved anticancer drug set is available from the NCI Developmental Therapeutics Program. […] The stock solutions were prepared in dimethyl sulfoxide (DMSO, Sigma-Aldrich, St. Louis, MO, cat. D2650) at 800-fold the tested concentration and stored at -70 degrees C prior to their use. All drugs and investigational agents were tested over a range starting from a high concentration at or near the clinical Cmax and decreasing in half-log increments. If the clinical Cmax for an agent had not been determined, the highest concentration tested was 10 microM.
Cell Culture. All cells were maintained in an incubator at 37 degrees C and 5% CO2 with 95% humidity. The PDC lines were cultured according to standard operating procedures established by the NCI PDMR (https://pdmr.cancer.gov/sops/default.htm). All PDCs were thawed and cultured in Matrigel-coated flasks prepared with a working solution of 1X Ham's F-12 nutrient mix, without supplementation (Invitrogen, Waltham, MA, cat. 11765054), 100 U/mL penicillin-streptomycin (Invitrogen, cat. 15140122), and 2.5% Matrigel (Corning Inc., Corning, NY, cat. 354248) for the first three passages. The 354836-022-R-J1-PDC, 475296-252-R-J1-PDC, and 997726-040-R-J2-PDC lines were cultured in 6A media, which includes advanced DMEM/F-12 (Thermo Fisher Scientific, cat. 12634028), 10 mM HEPES (Thermo Fisher Scientific, cat. 15630080), 1X GlutaMAX supplement (Thermo Fisher Scientific, cat. 35050061), 0.1 mg/mL primocin (InvivoGen, San Diego, CA, cat. ant-pm-2), 10% defined fetal bovine serum, heat inactivated (HyClone Laboratories Inc., Logan, UT, cat. SH30070.03HI), 50% L-WRN conditioned media (ATCC, cat. CRL-3276), 1.25 mM N-Acetyl-L-cysteine (Sigma-Aldrich, cat. A9165), 10 mM nicotinamide (Sigma-Aldrich, cat. N0636), 1X B-27 supplement (Thermo Fisher Scientific, cat. 17504044), 1X N-2 supplement (Thermo Fisher Scientific, cat. 17502048), and 10 microM Y-27632 dihydrochloride (Tocris Bioscience, Bristol, United Kingdom, cat. 1254). The 624824-186-R-J2-PDC line was cultured in 6C/Colon 1B media, which includes all 6A media components plus 50 ng/mL human EGF recombinant protein (Thermo Fisher Scientific, cat. PHG0311). […]
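Note: viability read 7 days after compound addition.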

pIC50 (second compound 0.0316 µM): 5.21
pIC50 (second compound 0.1 µM): 5.22
pIC50 (second compound 0.316 µM): 5.26
pIC50 (second compound 1 µM): 5.27
pIC50 (second compound 3.16 µM): 5.34
pIC50 (second compound 10 µM): 5.62
SMILES: CCCS(=O)(=O)Nc1ccc(F)c(C(=O)c2c[nH]c3ncc(-c4ccc(Cl)cc4)cc23)c1F + Cc1nc(NC(=O)N2CCCC2C(N)=O)sc1-c1ccnc(C(C)(C)C(F)(F)F)c1
viability, T/C (second compound 0.0316 µM, first compound 0.0316 µM): 104%
viability, T/C (second compound 0.0316 µM, first compound 0.1 µM): 98%
viability, T/C (second compound 0.0316 µM, first compound 0.316 µM): 121%
viability, T/C (second compound 0.0316 µM, first compound 1 µM): 131%
viability, T/C (second compound 0.0316 µM, first compound 3.16 µM): 113%
viability, T/C (second compound 0.0316 µM, first compound 10 µM): 6.2%
viability, T/C (second compound 0.1 µM, first compound 0.0316 µM): 99.5%
viability, T/C (second compound 0.1 µM, first compound 0.1 µM): 105%
viability, T/C (second compound 0.1 µM, first compound 0.316 µM): 105%
viability, T/C (second compound 0.1 µM, first compound 1 µM): 118%
viability, T/C (second compound 0.1 µM, first compound 3.16 µM): 120%
viability, T/C (second compound 0.1 µM, first compound 10 µM): 5.03%
viability, T/C (second compound 0.316 µM, first compound 0.0316 µM): 100%
viability, T/C (second compound 0.316 µM, first compound 0.1 µM): 91%
viability, T/C (second compound 0.316 µM, first compound 0.316 µM): 95.7%
viability, T/C (second compound 0.316 µM, first compound 1 µM): 108%
viability, T/C (second compound 0.316 µM, first compound 3.16 µM): 91.2%
viability, T/C (second compound 0.316 µM, first compound 10 µM): 4.47%
viability, T/C (second compound 1 µM, first compound 0.0316 µM): 87.8%
viability, T/C (second compound 1 µM, first compound 0.1 µM): 80.5%
viability, T/C (second compound 1 µM, first compound 0.316 µM): 91.5%
viability, T/C (second compound 1 µM, first compound 1 µM): 96.6%
viability, T/C (second compound 1 µM, first compound 3.16 µM): 89.6%
viability, T/C (second compound 1 µM, first compound 10 µM): 4.19%
viability, T/C (second compound 3.16 µM, first compound 0.0316 µM): 69%
viability, T/C (second compound 3.16 µM, first compound 0.1 µM): 82.1%
viability, T/C (second compound 3.16 µM, first compound 0.316 µM): 77.7%
viability, T/C (second compound 3.16 µM, first compound 1 µM): 72.5%
viability, T/C (second compound 3.16 µM, first compound 3.16 µM): 70.7%
viability, T/C (second compound 3.16 µM, first compound 10 µM): 4.52%
viability, T/C (second compound 10 µM, first compound 0.0316 µM): 61.2%
viability, T/C (second compound 10 µM, first compound 0.1 µM): 60.9%
viability, T/C (second compound 10 µM, first compound 0.316 µM): 65.3%
viability, T/C (second compound 10 µM, first compound 1 µM): 63.7%
viability, T/C (second compound 10 µM, first compound 3.16 µM): 46%
viability, T/C (second compound 10 µM, first compound 10 µM): 3.36%

pIC50 (second compound 0.00316 µM): 6.99
pIC50 (second compound 0.01 µM): 7.09
pIC50 (second compound 0.0316 µM): 7.37
pIC50 (second compound 0.1 µM): 7.85
pIC50 (second compound 0.316 µM): > 8.02
pIC50 (second compound 1 µM): > 8.02
SMILES: Cn1cnc2c(F)c(Nc3ccc(Br)cc3Cl)c(C(=O)NOCCO)cc21 + COc1c(OCCCN2CCOCC2)ccc2c3n(c(=NC(=O)c4cnc(N)nc4)nc12)CCN3
viability, T/C (second compound 0.00316 µM, first compound 0.00949 µM): 83.7%
viability, T/C (second compound 0.00316 µM, first compound 0.03 µM): 71%
viability, T/C (second compound 0.00316 µM, first compound 0.0949 µM): 51.1%
viability, T/C (second compound 0.00316 µM, first compound 0.3 µM): 31.4%
viability, T/C (second compound 0.00316 µM, first compound 0.949 µM): 18.3%
viability, T/C (second compound 0.00316 µM, first compound 3 µM): 9.54%
viability, T/C (second compound 0.01 µM, first compound 0.00949 µM): 88.6%
viability, T/C (second compound 0.01 µM, first compound 0.03 µM): 73.1%
viability, T/C (second compound 0.01 µM, first compound 0.0949 µM): 45%
viability, T/C (second compound 0.01 µM, first compound 0.3 µM): 25.6%
viability, T/C (second compound 0.01 µM, first compound 0.949 µM): 15.3%
viability, T/C (second compound 0.01 µM, first compound 3 µM): 8.03%
viability, T/C (second compound 0.0316 µM, first compound 0.00949 µM): 76.4%
viability, T/C (second compound 0.0316 µM, first compound 0.03 µM): 57%
viability, T/C (second compound 0.0316 µM, first compound 0.0949 µM): 33.7%
viability, T/C (second compound 0.0316 µM, first compound 0.3 µM): 17.5%
viability, T/C (second compound 0.0316 µM, first compound 0.949 µM): 10.3%
viability, T/C (second compound 0.0316 µM, first compound 3 µM): 5.43%
viability, T/C (second compound 0.1 µM, first compound 0.00949 µM): 56.4%
viability, T/C (second compound 0.1 µM, first compound 0.03 µM): 37.7%
viability, T/C (second compound 0.1 µM, first compound 0.0949 µM): 19.6%
viability, T/C (second compound 0.1 µM, first compound 0.3 µM): 11.9%
viability, T/C (second compound 0.1 µM, first compound 0.949 µM): 7.31%
viability, T/C (second compound 0.1 µM, first compound 3 µM): 4.08%
viability, T/C (second compound 0.316 µM, first compound 0.00949 µM): 39.2%
viability, T/C (second compound 0.316 µM, first compound 0.03 µM): 25.2%
viability, T/C (second compound 0.316 µM, first compound 0.0949 µM): 14.3%
viability, T/C (second compound 0.316 µM, first compound 0.3 µM): 8.7%
viability, T/C (second compound 0.316 µM, first compound 0.949 µM): 5.28%
viability, T/C (second compound 0.316 µM, first compound 3 µM): 2.51%
viability, T/C (second compound 1 µM, first compound 0.00949 µM): 26.2%
viability, T/C (second compound 1 µM, first compound 0.03 µM): 17.8%
viability, T/C (second compound 1 µM, first compound 0.0949 µM): 9.52%
viability, T/C (second compound 1 µM, first compound 0.3 µM): 4.72%
viability, T/C (second compound 1 µM, first compound 0.949 µM): 2.93%
viability, T/C (second compound 1 µM, first compound 3 µM): 1.42%

IC50 (curve of compound): 118 nM [middle of 4 runs]
SMILES: Cn1cnc2c(F)c(Nc3ccc(Br)cc3Cl)c(C(=O)NOCCO)cc21
viability, T/C (compound 0.00949 µM): 89.7% [middle of 4 runs]
viability, T/C (compound 0.03 µM): 67.5% [middle of 4 runs]
viability, T/C (compound 0.0949 µM): 53.3% [middle of 4 runs]
viability, T/C (compound 0.3 µM): 35.9% [middle of 4 runs]
viability, T/C (compound 0.949 µM): 22.4% [middle of 4 runs]
viability, T/C (compound 3 µM): 12.2% (2×) and 12.7% and 13.3%
